Reference: USRE40086E1, “Method for treating bacterial infection with novel 7-substituted-9-substituted amino 6-demethyl-6-deoxytetracyclines” (Wyeth Holdings Corporation, priority 1991, dated 2008)
Counter-ions that a name gives are not always drawn.

Key:
Bacteroides spp. = assay: MIC against clinical isolates (Table V, A and O); type: cell-based; settings: Bacteroides spp. clinical isolates, (15) tested
[1] = tested on: Pasturella multocida (Agricultural & Clinical); assay: MIC vs recent clinical and agricultural isolates (Table V, KK); type: cell-based; settings: [17] tested
[2] = tested on: E. faecalis UBMS 90-7 (tetM); assay: MIC, agar dilution; type: cell-based; settings: Enterococcus faecalis
Klebsiella pneumoniae = assay: MIC against clinical isolates (Table V, A and O); type: cell-based; settings: Klebsiella pneumoniae clinical isolates, (10) tested
Enterococcus faecalis = assay: MIC against clinical isolates (Table V, A and O); type: cell-based; settings: Enterococcus faecalis clinical isolates, (14) tested
[3] = tested on: N. gonorrhoeae 6418 (tetM); assay: MIC, agar dilution; type: cell-based; settings: Neisseria gonorrhoeae
[4] = tested on: S. aureus Smith (Sensitive); assay: MIC, agar dilution; type: cell-based
Enterobacter cloacae = assay: MIC vs recent clinical and agricultural isolates (Table V, KK); type: cell-based; settings: [10] tested
Bacteroides fragilis = assay: as above; type: cell-based; settings: [11] tested
[5] = tested on: Bacertoides fragilis group; assay: as above; type: cell-based; settings: [10] tested
Xanthomonas maltophilia = assay: as above; type: cell-based; settings: [10] tested
Moraxella catarrhalis = assay: as above; type: cell-based; settings: [18] tested
[6] = tested on: E. coli UBMS 88-2 (Sensitive); assay: MIC, agar dilution; type: cell-based; settings: Escherichia coli; E. coli UBMS 88-2 (Sensitive); read-out: MIC
S. aureus UBMS 90-1 = assay: In vivo antibacterial evaluation, acute lethal infection in mice; settings: Staphylococcus aureus, UBMS901, sc, read-out: ED50, median effective dose protecting 50% of the infected mice; mice infected with S. aureus UBMS 90-1 (tetM), single subcutaneous dosing
From the text: (§1) In Vivo Antibacterial Evaluation (Table VII)

S. aureus UBMS 90-2 = assay: as above; settings: Staphylococcus aureus, UBMS902, sc, read-out: ED50, median effective dose protecting 50% of the infected mice; mice infected with S. aureus UBMS 90-2 (tetM), single subcutaneous dosing
From the text: as §1

Listeria monocytogenes = assay: MIC vs recent clinical and agricultural isolates (Table V, KK); type: cell-based; settings: [8] tested
Anaerobic Gram (+) Cocci = assay: as above; type: cell-based; settings: [15] tested
Haemophilus influenzae = assay: MIC against clinical isolates (Table V, A and O); type: cell-based; settings: (18) tested
Citrobacter freundii = assay: MIC vs recent clinical and agricultural isolates (Table V, KK); type: cell-based; settings: [10] tested
Neisseria gonorrhoeae = assay: MIC against clinical isolates (Table V, A and O); type: cell-based; settings: Neisseria gonorrhoeae clinical isolates, (9) tested
S. aureus ROSE (MP) = assay: MIC, agar dilution (Table IA); type: cell-based; settings: unit assumed
[7] = tested on: TetM S30 extract, derivative of E. coli MRE600 containing the tetM determinant; assay: E. coli in vitro transcription and protein translation, 35S-methionine incorporation (Table VIII)
[8] = tested on: Wild Type S30 extract, E. coli strain MRE600 (tetracycline sensitive); assay: as above
S. aureus NEMC 8769/89-4 = assay: MIC, agar dilution (Table IA); type: cell-based; settings: unit assumed
[9] = tested on: Ps. acruginosa ATCC 27853; assay: MIC, agar dilution (Table IA); type: cell-based; settings: unit assumed
E. coli UBMS 90-5 = assay: MIC, agar dilution (Table IA); type: cell-based; settings: unit assumed
[10] = tested on: Salmonella spp. (Clinical); type: cell-based; settings: [11] tested
[11] = tested on: X. maltophilia NEMC 87210; assay: MIC, agar dilution (Table IA); type: cell-based; settings: unit assumed
Providencia spp. = assay: MIC vs recent clinical and agricultural isolates (Table V, KK); type: cell-based; settings: [13] tested
[12] = tested on: S. aureus IVES 1983 (meth. resistant); assay: MIC, agar dilution; type: cell-based; settings: S. aureus IVES 1983; Table IA; unit assumed
S. mariescens FDOR 8733 = assay: MIC, agar dilution (Table IA); type: cell-based; settings: unit assumed
Clostridium spp. = type: cell-based; settings: [9] tested
E. coli J3272 TetC = assay: MIC, agar dilution (Table IA); type: cell-based; settings: unit assumed
E. coli #311 (MP) = assay: MIC, agar dilution (Table IA); type: cell-based; settings: unit assumed
[13] = tested on: S. aureus IVES 2943 (meth. resistant); assay: MIC, agar dilution; type: cell-based; settings: S. aureus IVES 2943; Table IA; unit assumed
E. coli PRP1 TetA = assay: MIC, agar dilution (Table IA); type: cell-based; settings: unit assumed
E. coli J3272 TetD = assay: MIC, agar dilution (Table IA); type: cell-based; settings: unit assumed
E. coli J3272 Tet sens. = assay: MIC, agar dilution (Table IA); type: cell-based; settings: unit assumed

CN(C)c1ccc(O)c2c1C[C@H]1C[C@H]3[C@H](N(C)C)C(O)=C(C(N)=O)C(=O)[C@@]3(O)C(O)=C1C2=O [Compound O, 7-(Dimethylamino)-6-demethyl-6-deoxytetracycline hydrochloride (minocycline hydrochloride), reference compound]
MIC Range (Bacteroides spp.): >0.15 to 16.00 µg/mL
MIC50 (Bacteroides spp.; read-out: MIC50): 1 µg/mL
MIC90 (Bacteroides spp.; read-out: MIC90): 4 µg/mL
MIC (range over isolates) [1]: 0.015 to 4 µg/mL
MIC [2]: 8 µg/mL
MIC50 (Klebsiella pneumoniae; read-out: MIC50): 1 µg/mL
MIC90 (Klebsiella pneumoniae; read-out: MIC90): 4 µg/mL
MIC Range (Enterococcus faecalis): <0.015 to 16.00 µg/mL
MIC50 (Enterococcus faecalis; read-out: MIC50): 4 µg/mL
MIC90 (Enterococcus faecalis; read-out: MIC90): 16 µg/mL
MIC [3]: > 32 µg/mL
MIC ([4]; Staphylococcus aureus, S. aureus Smith (Sensitive), read-out: MIC): ≤ 0.015 µg/mL
MIC (range over isolates) (Enterobacter cloacae): 0.25 to 4 µg/mL
MIC (range over isolates) (Bacteroides fragilis): <0.008 to 16 µg/mL
MIC (range over isolates) [5]: <0.008 to 4 µg/mL
MIC (range over isolates) (Xanthomonas maltophilia): 0.12 to 1 µg/mL
MIC (range over isolates) (Moraxella catarrhalis): 0.03 to 0.12 µg/mL
MIC [6]: 0.5 µg/mL
ED50 (S. aureus UBMS 90-1): 1.7 mg/kg
ED50 (S. aureus UBMS 90-2): 3 mg/kg
MIC (range over isolates) (Listeria monocytogenes): 0.015 to 0.03 µg/mL
MIC (range over isolates) (Anaerobic Gram (+) Cocci): 0.05 to 8 µg/mL
MIC50 (Haemophilus influenzae): 0.12 µg/mL
MIC90 (Haemophilus influenzae): 0.25 µg/mL
MIC Range (Haemophilus influenzae): 0.06 to 0.25 µg/mL
MIC (range over isolates) (Citrobacter freundii): 0.03 to 32 µg/mL
MIC50 (Neisseria gonorrhoeae; read-out: MIC50): 0.25 µg/mL
MIC90 (Neisseria gonorrhoeae; read-out: MIC90): > 32 µg/mL

CN(C)CC(=O)Nc1cc(N(C)C)c2c(c1O)C(=O)C1=C(O)[C@]3(O)C(=O)C(C(N)=O)=C(O)[C@@H](N(C)C)C3CC1C2.Cl.Cl (stereo partly drawn) [KK, [4S-(4alpha,12aalpha)]-4,7-Bis(dimethylamino)-9-[[(dimethylamino)acetyl]amino]-1,4,4a,5,5a,6,11,12a-octahydro-3,10,12,12a-tetrahydroxy-1,11-dioxo-2-naphthacenecarboxamide dihydrochloride]
Antibacterial activity (MIC) (S. aureus ROSE (MP)): 1 µg/mL
% INHIBITION TetM S30 ([7]; 0.03 mg/ml): 75%
% INHIBITION TetM S30 ([7]; 0.06 mg/ml): 89%
% INHIBITION TetM S30 ([7]; 0.5 mg/ml): 96%
% INHIBITION TetM S30 ([7]; 1.0 mg/ml): 95%
MIC (range over isolates) [1]: 0.03 to 0.25 µg/mL
% INHIBITION Wild Type S30 ([8]; 0.03 mg/ml): 81%
% INHIBITION Wild Type S30 ([8]; 0.06 mg/ml): 82%
% INHIBITION Wild Type S30 ([8]; 0.5 mg/ml): 90%
% INHIBITION Wild Type S30 ([8]; 1.0 mg/ml): 92%
Antibacterial activity (MIC) (S. aureus NEMC 8769/89-4): 0.06 µg/mL
Antibacterial activity (MIC) [9]: 4 µg/mL
Antibacterial activity (MIC) (E. coli UBMS 90-5): 0.25 µg/mL
Antibacterial activity (MIC) ([4]; S. aureus SMITH (MP), Table IA, unit assumed): 0.06 µg/mL
MIC (range over isolates) (Enterobacter cloacae): 0.5 to 1 µg/mL
MIC (range over isolates) [10]: 0.25 to 0.5 µg/mL
Antibacterial activity (MIC) [11]: 0.25 µg/mL
MIC (range over isolates) (Providencia spp.): 2 to 8 µg/mL
MIC (range over isolates) (Bacteroides fragilis): 0.06 to 0.2 µg/mL
Antibacterial activity (MIC) [12]: 1 µg/mL
MIC (range over isolates) [5]: 0.06 to 2 µg/mL
MIC (range over isolates) (Xanthomonas maltophilia): 0.5 to 2 µg/mL
Antibacterial activity (MIC) (S. mariescens FDOR 8733): 2 µg/mL
MIC (range over isolates) (Clostridium spp.): 0.015 to 0.12 µg/mL
MIC (range over isolates) (Moraxella catarrhalis): 0.06 to 0.12 µg/mL
Antibacterial activity (MIC) (E. coli J3272 TetC): 1 µg/mL
MIC (range over isolates) (Listeria monocytogenes): 0.06 to 0.12 µg/mL
MIC (range over isolates) (Anaerobic Gram (+) Cocci): 0.015 to 0.06 µg/mL
Antibacterial activity (MIC) (E. coli #311 (MP)): 0.25 µg/mL
Antibacterial activity (MIC) [13]: 1 µg/mL
MIC (range over isolates) (Citrobacter freundii): 0.25 to 8 µg/mL
Antibacterial activity (MIC) (E. coli PRP1 TetA): 1 µg/mL
Antibacterial activity (MIC) (E. coli J3272 TetD): 0.12 µg/mL
Antibacterial activity (MIC) (E. coli J3272 Tet sens.): 0.12 µg/mL
